From ChEMBL document CHEMBL1641363, “Fragment-based discovery of 6-substituted isoquinolin-1-amine based ROCK-I inhibitors” (Bioorg Med Chem Lett, 2011)

Tests used:
[1] = target: Rho-associated protein kinase 1 (Homo sapiens, UniProt Q13464); conditions: 10 uM
Description: Inhibition of ROCK1 at 10 uM

[2] = target: T1, Tyrosine-protein kinase receptor TYRO3 (Homo sapiens) (UniProt Q06418); conditions: 10 uM
T1 sequence (whole entry): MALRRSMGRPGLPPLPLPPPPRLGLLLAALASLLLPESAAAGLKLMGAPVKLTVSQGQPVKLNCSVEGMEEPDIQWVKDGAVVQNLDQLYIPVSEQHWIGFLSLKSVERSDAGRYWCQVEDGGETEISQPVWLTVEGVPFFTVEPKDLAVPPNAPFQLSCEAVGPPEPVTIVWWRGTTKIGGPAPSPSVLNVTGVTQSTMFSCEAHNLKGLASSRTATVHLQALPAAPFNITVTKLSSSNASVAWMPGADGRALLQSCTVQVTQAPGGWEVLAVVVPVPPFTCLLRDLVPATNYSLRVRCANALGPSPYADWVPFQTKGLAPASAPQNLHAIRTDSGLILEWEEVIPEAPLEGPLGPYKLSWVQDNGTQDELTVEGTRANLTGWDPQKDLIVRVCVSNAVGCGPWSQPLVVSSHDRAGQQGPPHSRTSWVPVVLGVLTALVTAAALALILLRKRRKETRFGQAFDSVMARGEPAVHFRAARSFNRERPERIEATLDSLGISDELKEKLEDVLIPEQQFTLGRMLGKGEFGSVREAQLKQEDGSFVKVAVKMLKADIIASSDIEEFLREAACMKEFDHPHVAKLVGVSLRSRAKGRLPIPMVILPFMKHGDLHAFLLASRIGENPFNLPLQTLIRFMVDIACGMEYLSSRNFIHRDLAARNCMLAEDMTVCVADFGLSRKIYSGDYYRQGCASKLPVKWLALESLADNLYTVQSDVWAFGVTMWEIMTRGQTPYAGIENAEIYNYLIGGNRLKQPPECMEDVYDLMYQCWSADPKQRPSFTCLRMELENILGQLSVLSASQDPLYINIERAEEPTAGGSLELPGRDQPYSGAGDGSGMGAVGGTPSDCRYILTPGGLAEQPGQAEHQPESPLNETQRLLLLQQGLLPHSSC
Description: Inhibition of RSE at 10 uM

[3] = target: Mitogen-activated protein kinase kinase kinase kinase 4 (Homo sapiens) (UniProt O95819); conditions: 10 uM
Description: Inhibition of HGK at 10 uM

[4] = target: T2, Serine/threonine-protein kinase D2 (Homo sapiens) (UniProt Q9BZL6); conditions: 10 uM
T2 sequence (whole entry): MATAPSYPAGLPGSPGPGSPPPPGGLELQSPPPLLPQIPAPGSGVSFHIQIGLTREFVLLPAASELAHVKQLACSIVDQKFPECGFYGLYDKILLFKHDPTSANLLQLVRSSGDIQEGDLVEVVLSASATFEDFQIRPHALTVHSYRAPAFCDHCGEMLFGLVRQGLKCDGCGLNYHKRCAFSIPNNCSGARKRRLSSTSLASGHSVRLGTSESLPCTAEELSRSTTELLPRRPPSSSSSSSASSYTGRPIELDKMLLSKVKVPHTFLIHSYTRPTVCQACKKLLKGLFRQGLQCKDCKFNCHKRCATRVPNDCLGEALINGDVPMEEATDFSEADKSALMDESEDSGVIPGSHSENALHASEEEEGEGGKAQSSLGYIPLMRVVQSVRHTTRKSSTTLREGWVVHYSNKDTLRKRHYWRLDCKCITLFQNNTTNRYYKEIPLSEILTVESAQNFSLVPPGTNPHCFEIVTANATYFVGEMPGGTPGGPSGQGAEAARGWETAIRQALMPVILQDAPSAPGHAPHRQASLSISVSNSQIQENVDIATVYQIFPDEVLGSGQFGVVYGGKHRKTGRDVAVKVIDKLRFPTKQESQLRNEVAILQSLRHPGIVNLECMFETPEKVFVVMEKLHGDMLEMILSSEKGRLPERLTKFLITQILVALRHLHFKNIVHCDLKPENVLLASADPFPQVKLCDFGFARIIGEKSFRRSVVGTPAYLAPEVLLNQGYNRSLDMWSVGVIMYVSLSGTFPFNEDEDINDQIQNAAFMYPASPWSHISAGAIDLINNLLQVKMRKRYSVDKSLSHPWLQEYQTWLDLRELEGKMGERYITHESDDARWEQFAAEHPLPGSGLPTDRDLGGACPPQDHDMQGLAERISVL
Description: Inhibition of PKD at 10 uM

[5] = Half life in human liver microsome; format: ADME; conditions: liver microsomes
[6] = target: T3, Serine/threonine-protein kinase Sgk2 (Homo sapiens) (UniProt Q9HBY8); conditions: 10 uM
T3 sequence (whole entry): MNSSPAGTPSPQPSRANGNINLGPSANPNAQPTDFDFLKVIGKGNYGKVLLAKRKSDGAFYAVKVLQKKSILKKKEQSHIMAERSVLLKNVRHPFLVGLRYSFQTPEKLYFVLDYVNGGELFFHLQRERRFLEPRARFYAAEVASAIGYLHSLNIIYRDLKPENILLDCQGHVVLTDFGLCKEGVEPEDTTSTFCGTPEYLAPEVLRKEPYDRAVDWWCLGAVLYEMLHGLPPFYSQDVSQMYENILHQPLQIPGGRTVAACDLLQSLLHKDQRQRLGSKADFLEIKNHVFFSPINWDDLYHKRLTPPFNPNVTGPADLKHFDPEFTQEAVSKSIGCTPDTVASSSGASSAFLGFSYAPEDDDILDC
Description: Inhibition of SGK2 at 10 uM

[7] = target: Serine/threonine-protein kinase PLK3 (Homo sapiens) (UniProt Q9H4B4); conditions: 10 uM
Description: Inhibition of PLK3 at 10 uM

[8] = target: Casein kinase I isoform alpha (Homo sapiens) (UniProt P48729); conditions: 10 uM
Description: Inhibition of CK1 at 10 uM

[9] = Half life in C57 mouse; format: ADME, organism-based; conditions: in vivo
[10] = target: T4, Dual specificity tyrosine-phosphorylation-regulated kinase 3 (Homo sapiens) (UniProt O43781); conditions: 10 uM
T4 sequence (whole entry): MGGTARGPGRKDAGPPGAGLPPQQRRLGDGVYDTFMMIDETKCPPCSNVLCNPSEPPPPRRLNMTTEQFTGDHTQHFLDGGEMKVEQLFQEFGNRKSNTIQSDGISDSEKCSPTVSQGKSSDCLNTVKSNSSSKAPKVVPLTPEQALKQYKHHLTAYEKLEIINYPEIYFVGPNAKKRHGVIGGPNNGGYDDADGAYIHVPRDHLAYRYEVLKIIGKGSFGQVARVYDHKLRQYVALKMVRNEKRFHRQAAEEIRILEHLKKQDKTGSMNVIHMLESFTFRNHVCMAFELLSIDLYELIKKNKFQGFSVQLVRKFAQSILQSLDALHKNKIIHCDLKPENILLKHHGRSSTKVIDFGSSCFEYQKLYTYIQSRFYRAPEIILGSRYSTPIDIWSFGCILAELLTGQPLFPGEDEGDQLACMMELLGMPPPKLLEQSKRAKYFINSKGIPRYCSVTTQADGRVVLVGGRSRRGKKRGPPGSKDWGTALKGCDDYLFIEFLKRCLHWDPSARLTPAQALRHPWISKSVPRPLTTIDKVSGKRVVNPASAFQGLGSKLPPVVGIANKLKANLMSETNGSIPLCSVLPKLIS
Description: Inhibition of DYRK3 at 10 uM

Sequence of Serine/threonine-protein kinase PLK3 (Homo sapiens) (Q9H4B4 whole entry, looked up, canonical isoform): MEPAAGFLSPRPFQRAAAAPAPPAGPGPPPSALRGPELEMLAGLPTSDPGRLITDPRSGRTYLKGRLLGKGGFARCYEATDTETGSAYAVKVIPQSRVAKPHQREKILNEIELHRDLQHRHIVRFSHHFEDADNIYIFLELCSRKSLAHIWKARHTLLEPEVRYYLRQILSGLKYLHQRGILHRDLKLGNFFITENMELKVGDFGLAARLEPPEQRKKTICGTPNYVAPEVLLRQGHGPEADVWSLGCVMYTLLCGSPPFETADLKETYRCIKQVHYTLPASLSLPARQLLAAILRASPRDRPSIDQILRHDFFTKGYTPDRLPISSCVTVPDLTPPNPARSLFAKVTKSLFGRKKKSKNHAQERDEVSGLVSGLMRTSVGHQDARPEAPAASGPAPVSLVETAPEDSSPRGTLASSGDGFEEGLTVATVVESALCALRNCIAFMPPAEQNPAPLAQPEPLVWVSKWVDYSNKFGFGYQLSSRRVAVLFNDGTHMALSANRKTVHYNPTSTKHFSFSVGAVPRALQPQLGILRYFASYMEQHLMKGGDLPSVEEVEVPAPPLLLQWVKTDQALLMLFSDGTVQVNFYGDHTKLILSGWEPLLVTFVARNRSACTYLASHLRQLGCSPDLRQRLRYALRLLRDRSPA
Sequence of Casein kinase I isoform alpha (Homo sapiens) (P48729 2-337 limits assumed): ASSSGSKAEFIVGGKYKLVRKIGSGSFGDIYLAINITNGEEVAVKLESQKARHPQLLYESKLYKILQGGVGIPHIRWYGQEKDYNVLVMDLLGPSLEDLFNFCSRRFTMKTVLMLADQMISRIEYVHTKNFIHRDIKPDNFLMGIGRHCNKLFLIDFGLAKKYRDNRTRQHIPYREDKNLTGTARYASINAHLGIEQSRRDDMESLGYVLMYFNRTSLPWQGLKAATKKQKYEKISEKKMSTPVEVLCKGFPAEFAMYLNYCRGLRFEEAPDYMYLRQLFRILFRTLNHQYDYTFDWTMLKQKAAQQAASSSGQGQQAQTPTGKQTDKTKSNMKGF
Sequence of Rho-associated protein kinase 1 (Q13464 2-1354 limits assumed): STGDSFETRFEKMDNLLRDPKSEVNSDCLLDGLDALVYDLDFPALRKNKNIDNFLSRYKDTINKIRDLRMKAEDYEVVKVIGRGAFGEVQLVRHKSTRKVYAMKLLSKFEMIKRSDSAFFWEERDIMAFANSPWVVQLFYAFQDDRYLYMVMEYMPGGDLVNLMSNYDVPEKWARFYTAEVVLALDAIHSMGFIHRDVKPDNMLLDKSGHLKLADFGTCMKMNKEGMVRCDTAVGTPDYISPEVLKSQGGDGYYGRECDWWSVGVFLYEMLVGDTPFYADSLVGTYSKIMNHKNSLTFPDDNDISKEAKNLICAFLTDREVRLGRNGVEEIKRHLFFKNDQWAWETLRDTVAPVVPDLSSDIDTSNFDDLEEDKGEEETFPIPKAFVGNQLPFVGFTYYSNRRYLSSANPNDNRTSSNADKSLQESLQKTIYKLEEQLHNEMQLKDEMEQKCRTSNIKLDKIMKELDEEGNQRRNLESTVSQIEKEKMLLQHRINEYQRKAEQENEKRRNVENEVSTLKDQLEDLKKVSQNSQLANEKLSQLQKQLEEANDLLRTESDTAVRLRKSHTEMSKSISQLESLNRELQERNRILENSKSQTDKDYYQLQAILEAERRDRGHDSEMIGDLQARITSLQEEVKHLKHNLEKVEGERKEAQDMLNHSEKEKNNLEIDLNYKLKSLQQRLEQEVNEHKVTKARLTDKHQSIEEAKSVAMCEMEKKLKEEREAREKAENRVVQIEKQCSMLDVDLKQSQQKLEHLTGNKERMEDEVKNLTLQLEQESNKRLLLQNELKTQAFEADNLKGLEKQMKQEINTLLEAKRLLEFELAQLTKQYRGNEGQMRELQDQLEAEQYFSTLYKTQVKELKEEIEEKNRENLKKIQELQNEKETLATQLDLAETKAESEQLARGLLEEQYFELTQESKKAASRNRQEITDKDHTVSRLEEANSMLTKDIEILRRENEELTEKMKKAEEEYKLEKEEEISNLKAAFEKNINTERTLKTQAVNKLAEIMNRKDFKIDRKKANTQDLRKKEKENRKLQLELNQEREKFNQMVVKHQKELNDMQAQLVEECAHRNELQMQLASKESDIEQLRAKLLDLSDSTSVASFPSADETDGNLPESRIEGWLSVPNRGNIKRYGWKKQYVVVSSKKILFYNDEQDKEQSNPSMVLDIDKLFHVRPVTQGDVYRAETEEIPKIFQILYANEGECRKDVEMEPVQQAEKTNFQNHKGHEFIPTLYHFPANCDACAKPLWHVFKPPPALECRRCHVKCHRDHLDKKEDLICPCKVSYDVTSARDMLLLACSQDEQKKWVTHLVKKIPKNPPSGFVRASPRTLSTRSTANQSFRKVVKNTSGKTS
Sequence of Mitogen-activated protein kinase kinase kinase kinase 4 (Homo sapiens) (O95819 2-1239 limits assumed): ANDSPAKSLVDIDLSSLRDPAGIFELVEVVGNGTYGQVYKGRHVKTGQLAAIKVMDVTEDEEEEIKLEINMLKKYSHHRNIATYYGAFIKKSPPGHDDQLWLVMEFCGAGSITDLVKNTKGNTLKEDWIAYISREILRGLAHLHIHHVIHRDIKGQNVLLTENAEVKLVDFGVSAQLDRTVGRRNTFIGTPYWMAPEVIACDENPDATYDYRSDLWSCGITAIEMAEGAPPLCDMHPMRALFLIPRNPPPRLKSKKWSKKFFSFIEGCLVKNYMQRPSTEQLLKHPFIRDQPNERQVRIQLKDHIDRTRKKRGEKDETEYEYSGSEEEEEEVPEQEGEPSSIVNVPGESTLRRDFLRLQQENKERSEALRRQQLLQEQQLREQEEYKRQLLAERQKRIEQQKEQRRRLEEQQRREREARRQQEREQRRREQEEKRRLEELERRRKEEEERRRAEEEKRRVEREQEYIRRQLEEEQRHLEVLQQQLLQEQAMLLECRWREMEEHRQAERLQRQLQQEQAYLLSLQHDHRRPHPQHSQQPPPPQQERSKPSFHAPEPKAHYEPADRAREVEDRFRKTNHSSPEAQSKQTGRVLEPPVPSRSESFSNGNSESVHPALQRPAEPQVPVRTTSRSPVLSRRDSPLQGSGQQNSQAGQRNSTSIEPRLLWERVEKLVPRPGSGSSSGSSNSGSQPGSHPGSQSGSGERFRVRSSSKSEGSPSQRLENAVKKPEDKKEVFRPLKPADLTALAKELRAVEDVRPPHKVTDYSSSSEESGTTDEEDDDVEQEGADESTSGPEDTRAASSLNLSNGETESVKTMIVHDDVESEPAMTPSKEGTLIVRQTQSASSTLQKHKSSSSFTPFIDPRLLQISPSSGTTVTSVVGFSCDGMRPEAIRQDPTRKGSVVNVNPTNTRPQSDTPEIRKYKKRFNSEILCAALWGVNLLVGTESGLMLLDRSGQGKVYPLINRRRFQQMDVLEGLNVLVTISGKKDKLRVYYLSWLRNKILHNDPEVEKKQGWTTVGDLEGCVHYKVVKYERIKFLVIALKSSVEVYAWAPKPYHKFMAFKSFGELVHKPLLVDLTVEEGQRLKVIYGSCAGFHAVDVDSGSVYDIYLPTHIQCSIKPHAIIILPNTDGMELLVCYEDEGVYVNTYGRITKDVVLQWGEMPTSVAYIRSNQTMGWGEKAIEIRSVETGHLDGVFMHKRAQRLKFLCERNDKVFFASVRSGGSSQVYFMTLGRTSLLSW

- inhibition [1]: > 80%
- inhibition [2]: > 80%
- inhibition [3]: > 80%
- inhibition [4]: > 80%
- half-life [5]: > 2 h
- inhibition [6]: > 80%
- inhibition [7]: > 80%
- inhibition [8]: > 80%
- half-life [9]: 5.8 h
- inhibition [10]: > 80%
SMILES: Nc1nccc2cc(O[C@H]3CCCNC3)ccc12
